Article PMC7026418, “The kinase polypharmacology landscape of clinical PARP inhibitors” (Scientific Reports, 2020)

Assays:
LATS2 = biological target: T1, LATS2 (Homo sapiens, UniProt Q9NRM7); test: biochemical; set-up: Reaction Biology HotSpot radiometric 33P-ATP catalytic assay at Km ATP; percent inhibition versus DMSO, mean n=2; settings: Km ATP
T1 sequence (Q9NRM7 1-1088): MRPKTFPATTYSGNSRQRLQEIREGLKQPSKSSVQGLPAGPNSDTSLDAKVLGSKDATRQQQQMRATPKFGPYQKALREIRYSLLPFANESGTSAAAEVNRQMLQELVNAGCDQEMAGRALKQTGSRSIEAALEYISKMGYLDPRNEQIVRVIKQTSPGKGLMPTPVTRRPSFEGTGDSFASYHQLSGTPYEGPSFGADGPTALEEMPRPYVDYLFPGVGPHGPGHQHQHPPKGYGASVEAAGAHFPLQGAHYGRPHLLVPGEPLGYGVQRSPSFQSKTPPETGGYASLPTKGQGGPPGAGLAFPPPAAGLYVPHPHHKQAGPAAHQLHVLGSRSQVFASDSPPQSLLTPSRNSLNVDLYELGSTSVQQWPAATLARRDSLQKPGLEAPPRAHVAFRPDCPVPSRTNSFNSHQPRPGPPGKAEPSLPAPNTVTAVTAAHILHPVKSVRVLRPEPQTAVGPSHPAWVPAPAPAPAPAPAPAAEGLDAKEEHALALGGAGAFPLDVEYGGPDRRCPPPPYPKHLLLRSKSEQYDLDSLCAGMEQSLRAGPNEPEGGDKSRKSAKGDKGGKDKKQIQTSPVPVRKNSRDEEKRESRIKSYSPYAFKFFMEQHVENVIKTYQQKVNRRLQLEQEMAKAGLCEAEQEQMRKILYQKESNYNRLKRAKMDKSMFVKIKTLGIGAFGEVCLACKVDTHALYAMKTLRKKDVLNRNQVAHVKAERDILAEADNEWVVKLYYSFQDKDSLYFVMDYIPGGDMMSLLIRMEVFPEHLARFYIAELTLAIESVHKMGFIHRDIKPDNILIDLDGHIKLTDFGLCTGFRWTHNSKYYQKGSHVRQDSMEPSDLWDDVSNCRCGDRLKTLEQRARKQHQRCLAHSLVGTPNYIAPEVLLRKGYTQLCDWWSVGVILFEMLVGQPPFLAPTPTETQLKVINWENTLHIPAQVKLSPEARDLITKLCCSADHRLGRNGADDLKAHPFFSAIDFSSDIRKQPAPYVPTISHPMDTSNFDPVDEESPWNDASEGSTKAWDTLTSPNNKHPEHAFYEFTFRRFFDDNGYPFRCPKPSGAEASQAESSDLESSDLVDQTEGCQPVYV
Text: (§1) Unreacted phosphate is removed via washing the filters.

MYLK4 [1] = biological target: T2, MYLK4 (Homo sapiens, UniProt Q86YV6); test: biochemical; set-up: Reaction Biology HotSpot radiometric 33P-ATP catalytic assay at Km ATP; percent inhibition versus DMSO, mean n=2; settings: Km ATP
T2 sequence (Q86YV6 1-388): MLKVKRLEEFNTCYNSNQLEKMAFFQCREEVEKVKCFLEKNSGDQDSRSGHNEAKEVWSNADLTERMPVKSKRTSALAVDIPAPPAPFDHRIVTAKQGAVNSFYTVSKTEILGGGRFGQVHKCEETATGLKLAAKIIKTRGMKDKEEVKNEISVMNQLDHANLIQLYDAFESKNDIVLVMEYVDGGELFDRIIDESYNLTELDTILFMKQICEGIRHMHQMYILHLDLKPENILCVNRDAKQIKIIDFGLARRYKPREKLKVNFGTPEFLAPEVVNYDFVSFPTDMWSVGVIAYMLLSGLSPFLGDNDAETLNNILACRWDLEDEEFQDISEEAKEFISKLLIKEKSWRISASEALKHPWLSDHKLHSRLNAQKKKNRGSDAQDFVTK
Text: as §1

PIM1 = PIM1 (Homo sapiens, UniProt P11309); test: biochemical; set-up: Reaction Biology HotSpot radiometric 33P-ATP catalytic assay at Km ATP; percent inhibition versus DMSO, mean n=2; settings: Km ATP
Sequence of PIM1 (P11309 whole entry): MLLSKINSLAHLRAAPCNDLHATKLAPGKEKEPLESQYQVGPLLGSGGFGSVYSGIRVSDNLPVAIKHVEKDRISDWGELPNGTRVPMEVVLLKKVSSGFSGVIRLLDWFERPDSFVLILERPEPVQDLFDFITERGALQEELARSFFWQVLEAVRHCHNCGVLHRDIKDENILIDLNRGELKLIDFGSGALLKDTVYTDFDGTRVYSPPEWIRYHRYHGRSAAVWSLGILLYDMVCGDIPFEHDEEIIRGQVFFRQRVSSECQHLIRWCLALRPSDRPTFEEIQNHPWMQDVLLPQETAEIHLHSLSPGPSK
Text: as §1

PIM3 = PIM3 (Homo sapiens, UniProt Q86V86); test: biochemical; set-up: Reaction Biology HotSpot radiometric 33P-ATP catalytic assay at Km ATP; percent inhibition versus DMSO, mean n=2; settings: Km ATP
Text: as §1

HIPK1 = HIPK1 (Homo sapiens, UniProt Q86Z02); test: biochemical; settings: read-out: Niraparib
Sequence of HIPK1 (Q86Z02 whole entry): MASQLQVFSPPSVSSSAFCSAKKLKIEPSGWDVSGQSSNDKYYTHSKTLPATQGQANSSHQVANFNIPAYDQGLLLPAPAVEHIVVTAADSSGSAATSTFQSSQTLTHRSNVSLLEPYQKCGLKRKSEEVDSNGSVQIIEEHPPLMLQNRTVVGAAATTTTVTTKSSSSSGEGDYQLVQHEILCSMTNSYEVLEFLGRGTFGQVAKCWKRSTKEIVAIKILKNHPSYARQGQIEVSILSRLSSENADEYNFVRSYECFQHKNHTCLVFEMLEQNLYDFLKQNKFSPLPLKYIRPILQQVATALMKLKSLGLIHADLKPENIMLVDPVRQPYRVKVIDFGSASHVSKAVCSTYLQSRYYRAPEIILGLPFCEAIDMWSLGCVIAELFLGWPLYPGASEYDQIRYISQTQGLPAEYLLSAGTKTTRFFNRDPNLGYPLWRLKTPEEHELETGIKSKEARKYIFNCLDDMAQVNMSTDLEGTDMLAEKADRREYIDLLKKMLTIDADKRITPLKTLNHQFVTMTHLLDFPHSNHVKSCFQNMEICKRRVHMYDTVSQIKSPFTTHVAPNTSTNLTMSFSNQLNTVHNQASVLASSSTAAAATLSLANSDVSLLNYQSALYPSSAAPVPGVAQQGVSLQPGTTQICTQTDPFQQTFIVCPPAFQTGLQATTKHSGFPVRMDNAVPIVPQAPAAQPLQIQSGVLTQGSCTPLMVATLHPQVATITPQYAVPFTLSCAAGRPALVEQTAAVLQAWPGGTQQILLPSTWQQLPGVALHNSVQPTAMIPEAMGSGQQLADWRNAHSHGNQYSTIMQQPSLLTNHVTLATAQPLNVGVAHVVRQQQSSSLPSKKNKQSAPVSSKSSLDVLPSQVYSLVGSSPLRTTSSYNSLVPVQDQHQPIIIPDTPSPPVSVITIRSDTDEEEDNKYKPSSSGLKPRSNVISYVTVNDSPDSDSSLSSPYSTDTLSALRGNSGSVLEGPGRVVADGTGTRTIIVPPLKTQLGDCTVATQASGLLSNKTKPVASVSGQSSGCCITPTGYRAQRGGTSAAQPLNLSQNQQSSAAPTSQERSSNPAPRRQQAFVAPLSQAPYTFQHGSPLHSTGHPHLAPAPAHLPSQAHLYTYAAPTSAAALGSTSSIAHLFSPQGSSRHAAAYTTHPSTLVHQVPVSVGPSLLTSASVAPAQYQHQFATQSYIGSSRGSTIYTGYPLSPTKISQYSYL

Aurora B = biological target: T3, Aurora B (Homo sapiens, UniProt Q96GD4); test: biochemical; settings: read-out: Niraparib
T3 construct: gene AURKB
T3 sequence (Q96GD4 whole entry): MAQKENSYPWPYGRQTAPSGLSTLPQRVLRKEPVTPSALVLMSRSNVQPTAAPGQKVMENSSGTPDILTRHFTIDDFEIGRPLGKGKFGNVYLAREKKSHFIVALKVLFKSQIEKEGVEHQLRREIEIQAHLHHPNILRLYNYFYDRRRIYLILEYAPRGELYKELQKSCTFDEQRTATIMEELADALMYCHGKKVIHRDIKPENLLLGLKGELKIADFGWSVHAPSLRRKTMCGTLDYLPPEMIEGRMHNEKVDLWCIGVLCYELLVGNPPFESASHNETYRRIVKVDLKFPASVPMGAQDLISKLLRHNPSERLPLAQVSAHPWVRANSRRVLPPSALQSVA

MYLK4 [2] = biological target: T2, MYLK4; test: HotSpot radiometric kinase assay at […] (Km ATP), follow-up of KinomeScan binding; format: biochemical; settings: read-out: Rucaparib
CDK16 = biological target: T4, CDK16 (Homo sapiens, UniProt Q00536); test: biochemical; set-up: Reaction Biology HotSpot radiometric 33P-ATP catalytic assay at Km ATP; percent inhibition versus DMSO, mean n=2; settings: Km ATP
T4 construct: with cyclin Y
T4 sequence (Q00536 whole entry): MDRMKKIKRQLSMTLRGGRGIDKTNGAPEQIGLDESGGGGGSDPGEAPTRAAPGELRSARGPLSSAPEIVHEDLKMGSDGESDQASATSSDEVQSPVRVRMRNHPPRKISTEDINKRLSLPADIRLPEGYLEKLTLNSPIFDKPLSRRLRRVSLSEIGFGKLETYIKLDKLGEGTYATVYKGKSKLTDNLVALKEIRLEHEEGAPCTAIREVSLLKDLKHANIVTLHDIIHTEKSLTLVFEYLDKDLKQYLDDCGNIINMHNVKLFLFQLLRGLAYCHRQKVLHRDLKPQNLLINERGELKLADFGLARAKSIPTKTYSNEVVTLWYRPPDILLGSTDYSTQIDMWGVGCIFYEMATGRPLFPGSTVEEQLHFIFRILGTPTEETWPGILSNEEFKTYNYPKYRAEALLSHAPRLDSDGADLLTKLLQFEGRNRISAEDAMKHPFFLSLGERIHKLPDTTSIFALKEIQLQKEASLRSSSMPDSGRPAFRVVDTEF
T4 sequence (Q8ND76 2-341 partner): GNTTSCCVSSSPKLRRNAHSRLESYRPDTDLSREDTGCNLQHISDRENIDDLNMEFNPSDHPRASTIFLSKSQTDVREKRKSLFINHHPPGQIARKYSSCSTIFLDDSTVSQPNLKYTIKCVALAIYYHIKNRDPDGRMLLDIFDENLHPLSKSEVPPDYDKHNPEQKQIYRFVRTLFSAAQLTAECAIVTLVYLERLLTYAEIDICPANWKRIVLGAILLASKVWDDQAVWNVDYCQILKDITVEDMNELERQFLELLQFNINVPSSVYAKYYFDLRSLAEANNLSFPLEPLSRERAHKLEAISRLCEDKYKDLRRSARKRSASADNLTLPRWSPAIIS
Text: as §1

CDK4-cyclinD3 = CDK4-cyclinD3 (Homo sapiens, UniProt P11802); test: biochemical; set-up: Reaction Biology HotSpot radiometric 33P-ATP catalytic assay at Km ATP; percent inhibition versus DMSO, mean n=2; settings: Km ATP
Sequence of CDK4-cyclinD3 (P11802 whole entry): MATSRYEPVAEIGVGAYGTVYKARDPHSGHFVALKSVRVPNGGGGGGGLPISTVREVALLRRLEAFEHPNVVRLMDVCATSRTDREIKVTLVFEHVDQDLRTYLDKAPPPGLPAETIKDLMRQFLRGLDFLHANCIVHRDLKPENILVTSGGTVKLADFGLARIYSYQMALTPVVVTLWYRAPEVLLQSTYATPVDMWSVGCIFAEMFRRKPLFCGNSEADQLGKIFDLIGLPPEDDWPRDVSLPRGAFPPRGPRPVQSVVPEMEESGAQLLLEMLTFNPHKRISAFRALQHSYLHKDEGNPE
Sequence of CDK4-cyclinD3 (P30281 whole entry partner): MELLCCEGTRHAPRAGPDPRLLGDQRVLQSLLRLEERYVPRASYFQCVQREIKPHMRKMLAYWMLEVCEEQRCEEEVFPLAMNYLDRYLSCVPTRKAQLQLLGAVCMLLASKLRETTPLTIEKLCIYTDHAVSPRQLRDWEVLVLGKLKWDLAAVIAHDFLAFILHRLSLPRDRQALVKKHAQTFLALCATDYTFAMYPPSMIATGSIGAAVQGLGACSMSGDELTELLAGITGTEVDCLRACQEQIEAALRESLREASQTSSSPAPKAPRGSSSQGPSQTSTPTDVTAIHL
Text: as §1

TSSK3 = biological target: T5, TSSK3 (Homo sapiens, UniProt Q96PN8); test: biochemical; set-up: Reaction Biology HotSpot radiometric 33P-ATP catalytic assay at Km ATP; percent inhibition versus DMSO, mean n=2; settings: Km ATP
T5 sequence (Q96PN8 1-268): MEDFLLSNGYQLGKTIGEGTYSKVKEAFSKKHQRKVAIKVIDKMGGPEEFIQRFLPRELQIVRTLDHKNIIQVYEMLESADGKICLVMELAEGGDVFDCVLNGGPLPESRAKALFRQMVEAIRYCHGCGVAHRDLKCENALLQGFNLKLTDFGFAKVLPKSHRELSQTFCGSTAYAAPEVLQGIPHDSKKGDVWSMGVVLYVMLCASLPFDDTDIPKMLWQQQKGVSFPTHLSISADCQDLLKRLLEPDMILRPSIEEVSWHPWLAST
Text: as §1

FLT3(ITD) = FLT3(ITD) (Homo sapiens, UniProt P36888); test: biochemical; set-up: DiscoveRx KINOMEscan active site-directed competition binding; percent of control kinase bound to immobilised ligand; settings: binding competition, % of control
Sequence of FLT3(ITD) (P36888 564-993, change not shown): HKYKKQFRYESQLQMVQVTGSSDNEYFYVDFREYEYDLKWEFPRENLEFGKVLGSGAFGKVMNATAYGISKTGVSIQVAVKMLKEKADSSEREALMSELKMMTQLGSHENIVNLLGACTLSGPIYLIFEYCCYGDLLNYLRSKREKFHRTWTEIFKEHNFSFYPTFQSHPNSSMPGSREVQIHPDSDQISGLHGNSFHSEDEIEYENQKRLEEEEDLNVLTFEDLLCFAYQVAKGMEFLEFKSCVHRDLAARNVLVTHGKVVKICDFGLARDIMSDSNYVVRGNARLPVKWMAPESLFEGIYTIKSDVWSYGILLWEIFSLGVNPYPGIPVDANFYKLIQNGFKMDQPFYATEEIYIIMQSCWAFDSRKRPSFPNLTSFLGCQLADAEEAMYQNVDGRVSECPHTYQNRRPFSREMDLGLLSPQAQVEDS

SMILES	inhibition at 1 µM (LATS2)	inhibition at 1 µM (MYLK4 [1])	inhibition at 1 µM (PIM1)	inhibition at 1 µM (PIM3)	inhibition at 1 µM (HIPK1)	inhibition at 1 µM (Aurora B)	inhibition at 1 µM (MYLK4 [2])	inhibition at 1 µM (CDK16)	inhibition at 1 µM (CDK4-cyclinD3)	inhibition at 1 µM (TSSK3)	Rucaparib / %Ctrl @ 10000nM (FLT3(ITD))
NC(=O)c1cccc2cn(-c3ccc([C@@H]4CCCNC4)cc3)nc12 [Niraparib]	17%	19%	22%	15%	40%	34%	–	–	–	–	–
CNCc1ccc(-c2[nH]c3cc(F)cc4c3c2CCNC4=O)cc1 [Rucaparib]	–	–	–	–	–	–	36%	82%	10%	-1%	41%
